For test [1], the species on record is Rattus norvegicus. Nature of the test: Inhibition of microsomal lipid peroxidation induced by [Fe(3+)]-ADP/NADPH at 100 uM concentration. Type of test: functional.
The species named for test [2] is Rattus norvegicus. Nature of the test: Percent inhibition was evaluated by measuring the inhibition of microsomal lipid peroxidation induced by CCl4/NADPH. Type of test: functional. The note with it: dose or concentration not given here.
Test [3] concerns the target T1, Phospholipase A2, membrane associated (Homo sapiens) (UniProt P14555).
T1 sequence (whole entry): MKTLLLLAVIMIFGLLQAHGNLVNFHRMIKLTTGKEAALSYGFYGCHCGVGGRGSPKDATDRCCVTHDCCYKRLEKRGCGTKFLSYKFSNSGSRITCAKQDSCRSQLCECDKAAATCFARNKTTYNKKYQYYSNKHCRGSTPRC
Nature of the test: Inhibitory activity against synovial human recombinant phospholipase (hr-PLA2) at 100 uM concentration.

For test [4], the species on record is Homo sapiens. Nature of the test: Inhibitory activity against elastase release by human neutrophils. Format: functional. Set-up: concentration or dose not given beside the values.
The species entered for test [5] is Rattus norvegicus. Put plainly: IC50 value was evaluated by measuring the 50% inhibition of microsomal lipid peroxidation induced by [Fe(3+)]-ADP/NADPH. Format: functional.
The species named for test [6] is Rattus norvegicus. Nature of the test: Percent inhibition was evaluated by measuring the inhibition of peroxyl scavenging activity at 100 uM concentration. Format: functional.
The species named for test [7] is Rattus norvegicus. Put plainly: Inhibition of microsomal lipid peroxidation induced by [Fe(2+)]/ascorbate at 100 uM concentration. Type of test: functional.
The species named for test [8] is Homo sapiens. Nature of the test: Inhibitory activity against TXB2 generation at 100 uM concentration. Type of test: functional.
For test [9], the species on record is Rattus norvegicus. Put plainly: Inhibition of microsomal lipid peroxidation induced by [Fe(3+)]-ADP/NADPH at 100 uM concentration in rat liver. Format: functional.
The species entered for test [10] is Rattus norvegicus. Put plainly: (§1) Inhibition of microsomal lipid peroxidation induced by CCl4/NADPH in rat liver. Format: functional.
Test [11] is filed under the species Rattus norvegicus. Put plainly: Inhibition of microsomal lipid peroxidation induced by [Fe(2+)]/ascorbate in rat liver. Type of test: functional.
The species entered for test [12] is Rattus norvegicus. Put plainly: Inhibition of microsomal lipid peroxidation induced by [Fe(3+)]-ADP/NADPH in rat liver. Type of test: functional.
The species entered for test [13] is Rattus norvegicus. Put plainly: Inhibition of microsomal lipid peroxidation induced by [Fe(2+)]/ascorbate at given 100 uM concentration in rat liver. Type of test: functional.
The species named for test [14] is Rattus norvegicus. Described as §1. The note with it: dose or concentration not given here. Type of test: functional.
The species named for test [15] is Rattus norvegicus. Nature of the test: IC50 value was evaluated by measuring the 50% inhibition of peroxyl scavenging activity. Format: functional.
Test [16] is filed under the species Rattus norvegicus. Put plainly: IC50 value was evaluated by measuring the 50% inhibition of microsomal lipid peroxidation induced by CCl4/NADPH. Format: functional.
For test [17], the species on record is Rattus norvegicus. Put plainly: Percent inhibition was evaluated by measuring the inhibition of microsomal lipid peroxidation induced by CCl4/NADPH.p < 0.01. Type of test: functional. Particulars: dose or concentration not given here.
The species named for test [18] is Rattus norvegicus. Nature of the test: Percent inhibition was evaluated by measuring the inhibition of microsomal lipid peroxidation induced by [Fe(3+)]-ADP/NADPH at 100 uM concentration. Type of test: functional.
Test [19] concerns the target T1, Phospholipase A2, membrane associated (Homo sapiens). Put plainly: Inhibitory activity against synovial human recombinant phospholipase (hr-PLA2) at 1 mM concentration.
For test [20], the species on record is Rattus norvegicus. Nature of the test: Inhibition of peroxyl scavenging activity at 100 uM concentration. Format: functional.
For test [21], the species on record is Rattus norvegicus. Put plainly: Percent inhibition was evaluated by measuring the inhibition of microsomal lipid peroxidation induced by CCl4/NADPH. The note with it: dose or concentration not given here. Format: functional.
The species named for test [22] is Rattus norvegicus. Put plainly: Inhibition of microsomal lipid peroxidation induced by CCl4/NADPH. Format: functional.
The species entered for test [23] is Rattus norvegicus. Put plainly: Inhibition of microsomal lipid peroxidation induced by [Fe(3+)]-ADP/NADPH. Type of test: functional.
The species entered for test [24] is Rattus norvegicus. Nature of the test: Inhibition of microsomal lipid peroxidation induced by CCl4/NADPH at 100 uM concentration. Type of test: functional.
For test [25], the species on record is Rattus norvegicus. Nature of the test: Percent inhibition was evaluated by measuring the inhibition of peroxyl scavenging activity. The note with it: dose or concentration not given here. Format: functional.
For test [26], the species on record is Rattus norvegicus. Put plainly: Inhibition of microsomal lipid peroxidation induced by CCl4/NADPH. Type of test: functional. The note with it: dose or concentration not given here.

In general, inhibition refers to the relative decrease from the control value, in per cent. By Inhibition is commonly meant the drop in the measured response relative to a control, in per cent. As a reminder, the IC50 is the midpoint of a concentration-inhibition curve. For `COc1ccc(-c2cc(=O)c3ccc(C)c(C)c3o2)cc1OC`, the inhibition was found to be 89.6% in the test listed under Rattus norvegicus [1]; 26.2% in the test filed under Rattus norvegicus [2]; 25.7% in test [3]; 37.4% in the test filed under Rattus norvegicus [6]; 0% in the test listed under Rattus norvegicus [7]. Besides, the Inhibition is listed as 9.6% in the test listed under Homo sapiens [4] and 37.4% in the test listed under Homo sapiens [8]. For the same molecule, the half-inhibitory concentration (IC50) in the test filed under Rattus norvegicus [5] worked out at 29.6 µM.
As for `CCCOC(=O)c1cc(O)c(O)c(O)c1` [PROPYL GALLATE], the inhibition in the test filed under Rattus norvegicus [9], in the test filed under Rattus norvegicus [13], in the test listed under Rattus norvegicus [6] and in the test filed under Rattus norvegicus [14] was 100% in each case. Further, the IC50 stood at 4.5 µM in the test filed under Rattus norvegicus [10], 4.9 µM in the test listed under Rattus norvegicus [11], 8 µM in the test listed under Rattus norvegicus [12] and 33.9 µM in the test listed under Rattus norvegicus [15].
Regarding `COc1ccc(/C=C/C(=O)c2ccc(OC)c(OC)c2O)cc1OC`, the concentration for half-maximal inhibition (IC50) in the test filed under Rattus norvegicus [16] was 68.6 µM. Also, the inhibition in [3] stood at 55%; in the test listed under Rattus norvegicus [17] it was 57.2%; in the test listed under Rattus norvegicus [6], 40%; in the test filed under Rattus norvegicus [7] it was 0%; in the test listed under Rattus norvegicus [18], 33.1%. Besides, the Inhibition in the test listed under Homo sapiens [4] came to 87.6%; in the test filed under Homo sapiens [8], 77.2%.
Regarding `CCN(CC)CCCC(C)Nc1c2ccc(Cl)cc2nc2ccc(OC)cc12` (centres undefined), in test [19], the inhibition was determined as 48.9%.
Take `COc1ccc2c(c1)c(CC(=O)O)c(C)n2C(=O)c1ccc(Cl)cc1` [INDOMETHACIN]: the results for the Inhibition in the test listed under Homo sapiens [4] and in the test filed under Homo sapiens [8] were 31.9% and 100%, respectively.
`COc1ccc(-c2cc(=O)c3ccc(OC)c(OC)c3o2)cc1OC`: the inhibition in the test filed under Rattus norvegicus [1] came out at 93.2%; in test [3], 46.2%; in the test listed under Rattus norvegicus [20] it was 30%; in the test listed under Rattus norvegicus [21] it was 58.2%; in the test listed under Rattus norvegicus [7] it was 0%. For the same molecule, the Inhibition in the test listed under Homo sapiens [4] came out at 41.7%; in the test filed under Homo sapiens [8], 38.6%. In addition, the IC50 in the test filed under Rattus norvegicus [22] was 56.6 µM; in the test listed under Rattus norvegicus [23] it was 62.6 µM.
Take `COc1ccc(/C=C/C(=O)c2ccc(C)c(C)c2O)cc1OC`: the inhibition was found to be 51% in the test filed under Rattus norvegicus [1]; 27.5% in test [3]; 28.8% in the test filed under Rattus norvegicus [25]; 8.2% in the test listed under Rattus norvegicus [7]; 55.3% in the test filed under Rattus norvegicus [26]. In the test listed under Rattus norvegicus [24], this molecule gave an IC50 of 95 µM. The Inhibition in the test listed under Homo sapiens [4] amounted to 39.6%; in the test listed under Homo sapiens [8], 28.1%.

The values above are taken from ChEMBL document CHEMBL1128476, “Synthesis and pharmacological evaluation of 2'-hydroxychalcones and flavones as inhibitors of inflammatory mediators generation” (J Med Chem, 1995).
